# Values quoted from earlier work in US20060234982A1 (priority 2003, published 2006).
# How the values were obtained:
# [1] = system: HIV-1; details: in vitro, with recombinant soluble CD4, castanospermine or recombinant interferon-α
# [2] = system: HIV
# [3] = system: HBV; details: variety of cell types
# [4] = not given; remark: listed apart in the source
# [5] = relative to tenofovir, HIV in culture
structure (smiles),measurement,setting,value
"Cc1cn([C@H]2C[C@H](N=[N+]=[N-])[C@@H](CO)O2)c(=O)[nH]c1=O [AZT, 3′-azido, 3′-deoxythymidine]",antiviral activity in combination,[1],synergistic antiviral activity
"CC(C)OC(=O)[C@H](C)N[P@](=O)(CO[C@H](C)Cn1cnc2c(N)ncnc21)Oc1ccccc1 [GS-7340, 9-[(R)-2-[[(S)-[[(S)-1-(isopropoxycarbonyl)ethyl]amino]phenoxyphosphinyl]methoxy]propyl]adenine]",fold more effective than tenofovir against HIV in culture,[2]; [5],100 fold
same,times more effective than tenofovir against HIV in culture,[2]; [5],1000 times
same,S-configuration (at phosphorus) diastereomer more effective than R-configuration diastereomer,[2]; relative to the diastereomer with R-configuration at P,10 fold
same,effectiveness against HIV in vitro,[2]; variety of cell types,effective
same,effectiveness against HBV in vitro,[3],effective
same,hydrolysis in lymphatic tissue,dogs and rhesus monkeys,selectively hydrolyzed inside lymphatic tissue
same,plasma stability,dogs and rhesus monkeys,stable in plasma
same,oral bioavailability,"dogs and rhesus monkeys, oral",20%
same,tissue distribution,"in vivo and in vitro characterization, selective intracellular activation",preferential distribution in lymphatic tissues
"C[C@H](Cn1cnc2c(N)ncnc21)OCP(=O)(O)O [Tenofovir, (R)-9-(2-phosphonylmethoxypropyl)adenine]",pKa,[4],3.8
